Laboratory results as given in US20260373103A1, “COMPOSITIONS AND METHODS FOR PREVENTING CARDIOMYOPATHY” (OHIO STATE INNOVATION FOUNDATION, priority 2022, published 2026).

System: HeLa-Parkin or HeLa-Parkin/USP30 cells
Assay: Mitochondrial membrane potential (TMRM signal)
Assay type: cell-based
Conditions: FCCP 10 μM
Procedure: ΔΨm was measured using a fluorescence microplate reader (BioTek Instruments) in cells preincubated with Tetramethylrhodamine methyl ester (TMRM, Thermo Scientific) following manufacturer's instructions. Cells were washed in PBS before resuspension in Hank's balanced salt solution (HBSS; 156 mM NaCl, 3 mM KCl, 2 mM MgSO4, 1.25 mM KH2PO4, 2 mM CaCl2), 10 mM glucose and 10 mM HEPES; pH adjusted to 7.35 with NaOH) (1.0×10^6 cells/ml) containing 50 nM TMRM. For each individual experiment, average TMRM fluorescence was normalized to control cells.
We initially analyzed mitochondrial function using Tetramethylrhodamine (TMRM), a dye requiring mitochondrial membrane potential to accumulate within the mitochondria.

## N#CC(C#N)=NNc1ccc(OC(F)(F)F)cc1 [FCCP, Carbonyl cyanide-p-trifluoromethoxyphenylhydrazone, reference compound]
  TMRM staining (mitochondrial membrane potential): significant loss of staining
